Assay results from patent US6538137B1 (Teijin Limited, priority 1999, dated 2003).
pIC50: −log10 of the molar value.

molecular target: human FXa (Homo sapiens, UniProt P00742); assay: Determination of inhibitory activity of activated blood coagulation factor X (FXa); assay type: biochemical; conditions: substrate S-2765, Tris buffer pH 8.4, incubation 30 minutes, absorbance A405; read-out: FXa inhibitory activity, 50% inhibitory activity (IC50)
Method: A test substance was dissolved in water or water containing organic solvents (DMSO, ethanol or methanol) at a suitable concentration to provide a specimen. To 70 μl each of the resulting specimens serially diluted with water, were added 90 μl of a 100 mM Tris buffer (pH 8.4), 20 μl of a 50 mM Tris buffer (pH 8.4) containing 50 mU/ml human FXa and 2 mM of a substrate (S-2765 manufactured by Daiichi Pure Chemicals Co., Ltd.). Incubation was carried out for 30 minutes. To the incubated mixture, was then added 50 μl of a 50% acetic acid. The absorbance (A405) was determined. A mixture prepared by adding the Tris buffer instead of the FXa was used as a blank, and a mixture containing water instead of the specimen was used as a control. The 50% inhibitory activity (IC50) was determined as the indication of FXa inhibitory activity.

Sequence of human FXa (P00742 235-488 limits assumed): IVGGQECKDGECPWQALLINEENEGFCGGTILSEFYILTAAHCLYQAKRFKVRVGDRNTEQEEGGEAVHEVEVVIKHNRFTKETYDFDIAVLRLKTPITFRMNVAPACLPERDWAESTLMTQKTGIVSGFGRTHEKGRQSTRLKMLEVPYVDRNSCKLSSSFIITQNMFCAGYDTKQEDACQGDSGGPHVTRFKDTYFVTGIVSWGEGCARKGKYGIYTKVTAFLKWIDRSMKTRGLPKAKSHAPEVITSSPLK
Sequence of human FXa (P00742 41-179 partner limits assumed): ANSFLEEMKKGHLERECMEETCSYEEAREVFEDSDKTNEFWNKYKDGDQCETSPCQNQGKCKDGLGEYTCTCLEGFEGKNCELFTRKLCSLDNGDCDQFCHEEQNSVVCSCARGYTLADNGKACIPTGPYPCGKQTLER

pIC50 | Compound
6.00 to 7.00 | COC(=O)c1cc(COCC2CCN(C(C)C)CC2)cc(-c2cccc(C(=N)N)c2)c1 [Reference Example 4, methyl 3-(3-amidinophenyl)-5-[(N-isopropyl-4-piperidinyl)methoxymethyl]-5-benzoate]
6.00 to 7.00 | COC(=O)c1cc(COCC2CCN(C(C)=O)CC2)cc(-c2cccc(C(=N)N)c2)c1 [Reference Example 5, methyl 3-(3-amidinophenyl)-5-[(N-acetylpiperidin-4-yl)methoxymethyl]-5-benzoate]
7.00 to 8.00 | COC(=O)c1cc(COCC2CCN(C(C)=N)CC2)cc(-c2cccc(C(=N)N)c2)c1 [Reference Example 7, methyl 3-(3-amidinophenyl)-5-[(1-acetimidoyl-4-piperidinyl)methoxymethyl]benzoate]

Further lines, the compound ahead of its results:

Compound | pIC50
COC(=O)c1cc(COCC2CCNCC2)cc(-c2cccc(C(=N)N)c2)c1 [Reference Example 3, methyl 3-(3-amidinophenyl)-5-[(4-piperidinyl)methoxymethyl]-5-benzoate] | 6.00 to 7.00
CC(C)N1CCC(COCc2cc(C(=O)O)cc(-c3cccc(C(=N)N)c3)c2)CC1 | 6.00 to 7.00
COC(=O)c1cc(CNCC2CCN(C(C)=N)CC2)cc(-c2cccc(C(=N)N)c2)c1 [Reference Example 6, methyl 3-(3-amidinophenyl)-5-[(((N-acetimidoylpiperidin-4-yl)methyl)amino)methyl]benzoate] | 7.00 to 8.00
